# Measured values: ChEMBL document CHEMBL3045420, “Regulation of glycogen metabolism by anti-dyslipidemic action of gemfibrozil and cholestyramine in a dyslipidemic-diabetic hamster model” (2008)
# Key:
# Syrian golden hamster [1] = experiment: Antidyslipidemic activity in Mesocricetus auratus (Syrian golden hamster) high fat diet-induced dyslipidemic-diabetic model assessed as increase of glucose-6-phosphate level in liver at 500 mg/kg, po qd for 10 days relative to control; type: functional
# Syrian golden hamster [2] = experiment: Antidyslipidemic activity in Mesocricetus auratus (Syrian golden hamster) high fat diet-induced dyslipidemic-diabetic model assessed as reduction of total cholesterol level in muscle at 500 mg/kg, po qd for 10 days relative to control; type: functional
# Syrian golden hamster [3] = experiment: Antidyslipidemic activity in Mesocricetus auratus (Syrian golden hamster) high fat diet-induced dyslipidemic-diabetic model assessed as increase of insulin secretion per ml of plasma at 500 mg/kg, po qd for 10 days relative to control; type: functional
# Syrian golden hamster [4] = experiment: Antidyslipidemic activity in Mesocricetus auratus (Syrian golden hamster) high fat diet-induced dyslipidemic-diabetic model assessed as decrease of LHD in liver by measuring […] oxidation at 500 mg/kg, po qd for 10 days relative to control; type: functional
# Syrian golden hamster [5] = experiment: Antidyslipidemic activity in Mesocricetus auratus (Syrian golden hamster) high fat diet-induced dyslipidemic-diabetic model assessed as reduction of triglyceride level in plasma at 500 mg/kg, po qd for 10 days relative to control; type: functional
# Syrian golden hamster [6] = experiment: Antidyslipidemic activity in Mesocricetus auratus (Syrian golden hamster) high fat diet-induced dyslipidemic-diabetic model assessed as reduction of phospholipid level in liver at 500 mg/kg, po qd for 10 days relative to control; type: functional
# Syrian golden hamster [7] = experiment: Antidyslipidemic activity in Mesocricetus auratus (Syrian golden hamster) high fat diet-induced dyslipidemic-diabetic model assessed as increase of deoxycholic acid fecal excretion at 500 mg/kg, po qd for 10 days relative to control; type: functional, Feces
# Syrian golden hamster [8] = experiment: Antidyslipidemic activity in Mesocricetus auratus (Syrian golden hamster) high fat diet-induced dyslipidemic-diabetic model assessed as increase of glucose-6-phosphate level in muscle at 500 mg/kg, po qd for 10 days relative to control; type: functional
# Syrian golden hamster [9] = experiment: Antidyslipidemic activity in Mesocricetus auratus (Syrian golden hamster) high fat diet-induced dyslipidemic-diabetic model assessed as increase of cholesterylesters fecal excretion at 500 mg/kg, po qd for 10 days relative to control; type: functional, Feces
# Syrian golden hamster [10] = experiment: Antidyslipidemic activity in Mesocricetus auratus (Syrian golden hamster) high fat diet-induced dyslipidemic-diabetic model assessed as reduction of phospholipid level in muscle at 500 mg/kg, po qd for 10 days relative to control; type: functional
# Syrian golden hamster [11] = experiment: Antidyslipidemic activity in Mesocricetus auratus (Syrian golden hamster) high fat diet-induced dyslipidemic-diabetic model assessed as reduction of total cholesterol level in plasma at 500 mg/kg, po qd for 10 days relative to control; type: functional
# Syrian golden hamster [12] = experiment: Antidyslipidemic activity in Mesocricetus auratus (Syrian golden hamster) high fat diet-induced dyslipidemic-diabetic model assessed as reduction of triglyceride level in muscle at 500 mg/kg, po qd for 10 days relative to control; type: functional
# Syrian golden hamster [13] = experiment: Antidyslipidemic activity in Mesocricetus auratus (Syrian golden hamster) high fat diet-induced dyslipidemic-diabetic model assessed as increase of cholic acid fecal excretion at 500 mg/kg, po qd for 10 days relative to control; type: functional, Feces
# Syrian golden hamster [14] = experiment: Antidyslipidemic activity in Mesocricetus auratus (Syrian golden hamster) high fat diet-induced dyslipidemic-diabetic model assessed as increase of glucose-6-phosphatase in liver by measuring […] release per mg of protein at 500 mg/kg, po qd for 10 days relative to control; type: functional
# Syrian golden hamster [15] = experiment: Antidyslipidemic activity in Mesocricetus auratus (Syrian golden hamster) high fat diet-induced dyslipidemic-diabetic model assessed as reduction of nonesterfied fatty acid level in plasma at 500 mg/kg, po qd for 10 days relative to control; type: functional
# Syrian golden hamster [16] = experiment: Antidyslipidemic activity in Mesocricetus auratus (Syrian golden hamster) high fat diet-induced dyslipidemic-diabetic model assessed as increase of glycogen phosphorylase in muscle by measuring […] release per mg of protein at 500 mg/kg, po qd for 10 days relative to control; type: functional
# Syrian golden hamster [17] = experiment: Antidyslipidemic activity in Mesocricetus auratus (Syrian golden hamster) high fat diet-induced dyslipidemic-diabetic model assessed as reduction of glucose level in plasma at 500 mg/kg, po qd for 10 days relative to control; type: functional
# Syrian golden hamster [18] = experiment: Antidyslipidemic activity in Mesocricetus auratus (Syrian golden hamster) high fat diet-induced dyslipidemic-diabetic model assessed as decrease of LHD in muscle by measuring […] oxidation at 500 mg/kg, po qd for 10 days relative to control; type: functional
# Syrian golden hamster [19] = experiment: Antidyslipidemic activity in Mesocricetus auratus (Syrian golden hamster) high fat diet-induced dyslipidemic-diabetic model assessed as reduction of triglyceride level in liver at 500 mg/kg, po qd for 10 days relative to control; type: functional
# Syrian golden hamster [20] = experiment: Antidyslipidemic activity in Mesocricetus auratus (Syrian golden hamster) high fat diet-induced dyslipidemic-diabetic model assessed as increase of glycogen level in muscle at 500 mg/kg, po qd for 10 days relative to control; type: functional
# Syrian golden hamster [21] = experiment: Antidyslipidemic activity in Mesocricetus auratus (Syrian golden hamster) high fat diet-induced dyslipidemic-diabetic model assessed as increase of lipase activity in muscle at 500 mg/kg, po qd for 10 days relative to control; type: functional
# Syrian golden hamster [22] = experiment: Antidyslipidemic activity in Mesocricetus auratus (Syrian golden hamster) high fat diet-induced dyslipidemic-diabetic model assessed as increase of lipase activity in liver at 500 mg/kg, po qd for 10 days relative to control; type: functional
# Syrian golden hamster [23] = experiment: Antidyslipidemic activity in Mesocricetus auratus (Syrian golden hamster) high fat diet-induced dyslipidemic-diabetic model assessed as effect on glycogen synthase in muscle by measuring sodium pyruvate release at 500 mg/kg, po qd for 10 days relative to control; type: functional
# Syrian golden hamster [24] = experiment: Antidyslipidemic activity in Mesocricetus auratus (Syrian golden hamster) high fat diet-induced dyslipidemic-diabetic model assessed as increase of hexokinase in muscle by measuring […] release per mg of protein at 500 mg/kg, po qd for 10 days relative to control; type: functional
# Syrian golden hamster [25] = experiment: Antidyslipidemic activity in Mesocricetus auratus (Syrian golden hamster) high fat diet-induced dyslipidemic-diabetic model assessed as increase of cholesterol fecal excretion at 500 mg/kg, po qd for 10 days relative to control; type: functional, Feces
# Syrian golden hamster [26] = experiment: Antidyslipidemic activity in Mesocricetus auratus (Syrian golden hamster) high fat diet-induced dyslipidemic-diabetic model assessed as increase of nonesterfied fatty acid fecal excretion at 500 mg/kg, po qd for 10 days relative to control; type: functional, Feces
# Syrian golden hamster [27] = experiment: Antidyslipidemic activity in Mesocricetus auratus (Syrian golden hamster) high fat diet-induced dyslipidemic-diabetic model assessed as increase of glycogen level in liver at 500 mg/kg, po qd for 10 days relative to control; type: functional
# Syrian golden hamster [28] = experiment: Antidyslipidemic activity in Mesocricetus auratus (Syrian golden hamster) high fat diet-induced dyslipidemic-diabetic model assessed as reduction of glycerol level in plasma at 500 mg/kg, po qd for 10 days relative to control; type: functional
# Syrian golden hamster [29] = experiment: Antidyslipidemic activity in Mesocricetus auratus (Syrian golden hamster) high fat diet-induced dyslipidemic-diabetic model assessed as increase of triglyceride fecal excretion at 500 mg/kg, po qd for 10 days relative to control; type: functional, Feces
# Syrian golden hamster [30] = experiment: Antidyslipidemic activity in Mesocricetus auratus (Syrian golden hamster) high fat diet-induced dyslipidemic-diabetic model assessed as increase of glycogen phosphorylase in liver by measuring […] release per mg of protein at 500 mg/kg, po qd for 10 days relative to control; type: functional
# Syrian golden hamster [31] = experiment: Antidyslipidemic activity in Mesocricetus auratus (Syrian golden hamster) high fat diet-induced dyslipidemic-diabetic model assessed as reduction of total cholesterol level in liver at 500 mg/kg, po qd for 10 days relative to control; type: functional
# Syrian golden hamster [32] = experiment: Antidyslipidemic activity in Mesocricetus auratus (Syrian golden hamster) high fat diet-induced dyslipidemic-diabetic model assessed as reduction of lipolysis in adipose tissue at 500 mg/kg, po qd for 10 days relative to control; type: functional; parameters: scale not given: the % may be the effect or the level left
# Syrian golden hamster [33] = experiment: Antidyslipidemic activity in Mesocricetus auratus (Syrian golden hamster) high fat diet-induced dyslipidemic-diabetic model assessed as effect on glycogen synthase in liver by measuring sodium pyruvate release at 500 mg/kg, po qd for 10 days relative to control; type: functional
smiles,measurement,setting,value
Cc1ccc(C)c(OCCCC(C)(C)C(=O)O)c1 [GEMFIBROZIL],Activity,Syrian golden hamster [1],0.59 µmol/g
same,Activity,Syrian golden hamster [2],1.25 mg/g
same,Activity,Syrian golden hamster [3],34 uU/ml
same,Activity,Syrian golden hamster [4],3.61 nmol/min/mg
same,Activity,Syrian golden hamster [5],220.86 mg/dL
same,Activity,Syrian golden hamster [6],10.47 mg/g
same,Activity,Syrian golden hamster [7],38.48 µg/g
same,Activity,Syrian golden hamster [8],0.2 µmol/g
same,Activity,Syrian golden hamster [9],258.79 µg/g
same,Activity,Syrian golden hamster [10],5.14 mg/g
same,Activity,Syrian golden hamster [11],269.72 mg/dL
same,Activity,Syrian golden hamster [12],6.3 mg/g
same,Activity,Syrian golden hamster [13],65.2 µg/g
same,Activity,Syrian golden hamster [14],0.345 µM/min
same,Activity,Syrian golden hamster [15],1.56 µmol/dL
same,Activity,Syrian golden hamster [16],36.11 µM/h
same,Activity,Syrian golden hamster [17],57.57 mg/dL
same,Activity,Syrian golden hamster [18],21.73 nmol/min/mg
same,Activity,Syrian golden hamster [19],7.92 mg/g
same,Activity,Syrian golden hamster [20],3.6 mg/g
same,Activity,Syrian golden hamster [21],80%
same,Activity,Syrian golden hamster [22],60%
same,Activity,Syrian golden hamster [23],0.063 nmol/min/mg
same,Activity,Syrian golden hamster [24],0.066 µM/min
same,Activity,Syrian golden hamster [25],858.81 µg/g
same,Activity,Syrian golden hamster [26],53.79 µmol/g
same,Activity,Syrian golden hamster [27],28.49 mg/g
same,Activity,Syrian golden hamster [28],51.66 mg/dL
same,Activity,Syrian golden hamster [29],960 µg/g
same,Activity,Syrian golden hamster [30],5.6 µM/h
same,Activity,Syrian golden hamster [31],2.61 mg/g
same,Activity,Syrian golden hamster [32],19%
same,Activity,Syrian golden hamster [33],0.057 nmol/min/mg
